The term inhibition denotes the share of the control response that was lost under treatment. As a reminder, the IC50 is the concentration that gives 50% inhibition.

The record followed here is ChEMBL document CHEMBL2157907, “Optimization of anti-Trypanosoma cruzi oxadiazoles leads to identification of compounds with efficacy in infected mice” (Bioorg Med Chem, 2012).

Series [1] has as its system Trypanosoma cruzi. In words: Induction of ultrastructural changes in trypomastigotes of Trypanosoma cruzi Y assessed as plasma membrane protrusions at 30 uM after 24 hrs by scanning electron microscopic analysis. The class given is functional.
Series [2] concerns Trypanosoma cruzi. In words: Induction of kinetoplast enlargement in trypomastigotes of Trypanosoma cruzi Y at 9.5 uM after 24 hrs by […] electron microscopic analysis. In kind it is functional, organism-based.
The subject of series [3] is Trypanosoma cruzi. Kind of series: Induction of mitochondria degeneration in trypomastigotes of Trypanosoma cruzi Y at 9.5 uM after 24 hrs by […] electron microscopic analysis. In kind it is functional, organism-based.
Series [4] concerns the target Cruzipain (Trypanosoma cruzi) (UniProt P25779). In words: Inhibition of Trypanosoma cruzi cruzain using Z-Phe-Arg-aminomethylcoumarin as substrate at 100 uM after 10 mins.
Series [5] relates to Trypanosoma cruzi. Kind of series: Induction of golgi apparatus degeneration in trypomastigotes of Trypanosoma cruzi Y at 9.5 uM after 24 hrs by […] electron microscopic analysis. The class given is functional, organism-based.
The subject of series [6] is Trypanosoma cruzi. Kind of series: Antitrypanosomal activity against trypomastigotes of Trypanosoma cruzi Y infected in rhesus monkey LLC-MK2 cells assessed parasite viability after 24 hrs. In kind it is functional, organism-based. Conditions: LLC-MK2, 24 h.
Series [7] concerns Trypanosoma cruzi. Kind of series: Antitrypanosomal activity against trypomastigotes of Trypanosoma cruzi Y infected in BALB/c mouse peritoneal exudate macrophages assessed as reduction of parasite level at 10 ug/ml after 4 days. In kind it is functional, organism-based.
Series [8] deals with Trypanosoma cruzi. Kind of series: Induction of endoplasmic reticulum degeneration in trypomastigotes of Trypanosoma cruzi Y at 9.5 uM after 24 hrs by […] electron microscopic analysis. The class given is functional, organism-based.
The nature of series [9]: Cytotoxicity against BALB/c mouse splenocytes after 24 hrs by [3H]-thymidine incorporation assay. In kind it is cell-based, Splenocyte. To be noted: read-out: LC50.
Series [10] deals with Trypanosoma cruzi. In words: Antitrypanosomal activity against trypomastigotes of Trypanosoma cruzi Y in BALB/c mouse peritoneal exudate macrophages assessed as reduction of parasite infection to cells at 10 ug/ml treated simultaneously with parasite measured after 2 hrs. The class given is functional, organism-based.
Series [11] deals with Trypanosoma cruzi. In words: Antitrypanosomal activity against epimastigotes of Trypanosoma cruzi Y after 5 days. The class given is functional, organism-based. To be noted: 120 h.
Series [12] deals with Trypanosoma cruzi. In words: Antitrypanosomal activity against trypomastigotes of Trypanosoma cruzi Y infected in BALB/c mouse assessed as reduction of parasite level in blood at 50 mg/kg, po administered after 5 days of postinfection qd for 5 days. The class given is functional, organism-based. More on the design: dose 50 mg/kg.
A further series deals with Cruzipain (Trypanosoma cruzi, UniProt P25779). Kind of series: Inhibition of Trypanosoma cruzi cruzain using Z-Phe-Arg-aminomethylcoumarin as substrate after 10 mins.
Chain of Cruzipain (P25779 whole entry): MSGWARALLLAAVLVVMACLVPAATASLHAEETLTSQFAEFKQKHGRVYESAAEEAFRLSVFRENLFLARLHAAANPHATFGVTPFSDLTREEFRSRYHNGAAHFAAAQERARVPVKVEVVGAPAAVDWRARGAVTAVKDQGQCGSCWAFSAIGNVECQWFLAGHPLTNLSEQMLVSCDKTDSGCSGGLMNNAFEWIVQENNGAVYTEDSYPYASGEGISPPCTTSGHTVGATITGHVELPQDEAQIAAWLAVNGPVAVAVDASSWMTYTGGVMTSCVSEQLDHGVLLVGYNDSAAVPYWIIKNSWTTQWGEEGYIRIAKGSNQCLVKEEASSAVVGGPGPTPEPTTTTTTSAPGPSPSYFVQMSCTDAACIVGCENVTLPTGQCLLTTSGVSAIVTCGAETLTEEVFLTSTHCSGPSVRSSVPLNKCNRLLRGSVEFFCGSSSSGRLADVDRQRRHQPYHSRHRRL

Activity calls are given as the source filed them. The rule behind the calls is not given here.

Chain of Cruzipain (Trypanosoma cruzi) (P25779 123-467 limits assumed): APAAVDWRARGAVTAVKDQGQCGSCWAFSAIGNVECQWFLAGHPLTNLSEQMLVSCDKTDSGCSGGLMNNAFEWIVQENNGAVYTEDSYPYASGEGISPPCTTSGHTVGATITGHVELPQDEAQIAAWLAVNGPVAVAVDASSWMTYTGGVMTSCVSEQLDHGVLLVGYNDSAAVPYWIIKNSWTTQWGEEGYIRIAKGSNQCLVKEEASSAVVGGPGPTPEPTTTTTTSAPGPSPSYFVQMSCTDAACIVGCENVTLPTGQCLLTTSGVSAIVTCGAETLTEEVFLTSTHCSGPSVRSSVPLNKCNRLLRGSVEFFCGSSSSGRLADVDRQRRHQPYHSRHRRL

Turning to `O=C(N/N=C/c1ccc2c(c1)OCO2)c1nc(-c2ccc(F)cc2)no1`, the Activity with Trypanosoma cruzi [1] is given as 80%. Moreover, the result in the series on Trypanosoma cruzi [2], in the series on Trypanosoma cruzi [3], in the series with Trypanosoma cruzi [5], in the series on Trypanosoma cruzi [7], in the series with Trypanosoma cruzi [8] and in the series on Trypanosoma cruzi [10] was Active. Besides, the inhibition in series [4] came to 34%. Further, the results for the IC50 in the series with Trypanosoma cruzi [6] and in the series with Trypanosoma cruzi [11] were 9.5 µM and 12.2 µM, respectively. Also, the CC50 at 24 h in series [9] was greater than 100 µg/mL. For the same compound, the result with Trypanosoma cruzi [12] was inactive.
As to `O=C(N/N=C/c1ccc2c(c1)OCO2)c1nc(-c2ccc(Br)cc2)no1`, the IC50 at Cruzipain is 0.03 µM; in the series on Trypanosoma cruzi [6], 13.4 µM; with Trypanosoma cruzi [11] it was 14 µM. In [4], this compound registered an inhibition of 95%. For the same compound, the outcome in the series on Trypanosoma cruzi [7] was inactive. Moreover, in series [9], the CC50 at 24 h was greater than 100 µg/mL.
